Assay results taken from PubChem BioAssay (NCI).
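Compound exposure: 48 hours, 5 concentrations, 96-well plates. The concentration for 50% growth inhibition is given as GI50. TGI marks complete inhibition of growth.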

How the values were obtained:
Assay in all cases: NCI-60 cell line screen, 48 h
UACC-257 melanoma = tested on: UACC-257 melanoma
TK-10 renal = tested on: TK-10 renal
MOLT-4 leukemia = tested on: MOLT-4 leukemia
HOP-92 NSCLC = tested on: HOP-92 NSCLC
SNB-19 CNS = tested on: SNB-19 CNS
HCC-2998 colon = tested on: HCC-2998 colon
NCI-H226 lung = tested on: NCI-H226 lung
PC-3 prostate = tested on: PC-3 prostate
DU-145 prostate = tested on: DU-145 prostate
NCI/ADR-RES ovarian = tested on: NCI/ADR-RES ovarian

SMILES	GI50 (UACC-257 melanoma) [µM]	TGI (UACC-257 melanoma) [µM]	GI50 (TK-10 renal) [µM]	TGI (TK-10 renal) [µM]	GI50 (MOLT-4 leukemia) [µM]	TGI (MOLT-4 leukemia) [µM]	GI50 (HOP-92 NSCLC) [µM]	TGI (HOP-92 NSCLC) [µM]	GI50 (SNB-19 CNS) [µM]	TGI (SNB-19 CNS) [µM]	GI50 (HCC-2998 colon) [µM]	TGI (HCC-2998 colon) [µM]	TGI (NCI-H226 lung) [µM]	GI50 (PC-3 prostate) [µM]	TGI (PC-3 prostate) [µM]	GI50 (NCI-H226 lung) [µM]	GI50 (DU-145 prostate) [µM]	TGI (DU-145 prostate) [µM]	GI50 (NCI/ADR-RES ovarian) [µM]	TGI (NCI/ADR-RES ovarian) [µM]
CC(=O)[CH-]C(=O)c1ccccc1.CC(=O)[CH-]C(=O)c1ccccc1.[Eu+3].[OH-].[OH3+]	> 100	> 100	> 100	> 100	> 100	> 100	7.44	99.7	> 100	> 100	> 100	> 100	–	–	–	–	–	–	–	–
O=C1NC(=O)C2C(=O)NC(=O)C1C2(c1ccccc1)c1cc[nH]c1 (stereo not given)	–	> 100	–	> 100	–	> 100	–	> 100	–	> 100	–	> 100	> 100	–	–	–	–	–	–	–
CCC1(c2c(F)c(F)c(N)c(F)c2F)CCC(=O)NC1=O (stereo not given)	–	> 100	–	> 100	–	> 100	–	> 100	–	> 100	–	> 100	> 100	–	–	–	–	–	–	–
CC(=O)OC[C@]1(O)CC[C@@]23CC1C[C@@H]2CCC1C(C)(C)CCC[C@@]13C (stereo not given in full)	–	29.4	–	26.2	–	15.8	–	27.8	–	27.6	–	33	32.7	–	–	–	–	–	–	–
COc1ccc(-n2nnnc2-c2c[nH]c3c(F)cc(F)cc23)cc1	> 100	> 100	> 100	> 100	> 100	> 100	–	–	75.5	> 100	> 100	> 100	> 100	> 100	> 100	> 100	> 100	> 100	40.6	> 100
CCc1c(C#N)c(S[C@@H](C(N)=O)c2ccccc2)nc(N(C)C)c1C#N	–	–	21.9	80.4	–	–	–	–	3.46	21.5	> 100	> 100	> 100	–	–	4.76	> 100	> 100	–	–
C=C1C(=O)O[C@H]2[C@H]1CC/C(Cn1cc(-c3cc(C(F)(F)F)cc(C(F)(F)F)c3)nn1)=C\CC[C@@]1(C)O[C@@H]21	1.46	2.91	–	–	0.191	0.603	0.344	1.44	1.71	3.58	1.17	2.51	3.56	0.832	2.33	1.65	0.726	2.02	–	–
CCOc1ccccc1NC(=O)CC1SC(=Nc2ccc([N+](=O)[O-])cc2)NC1=O (stereo not given)	–	46.1	–	70.2	–	60.3	–	25.8	–	> 100	–	36.7	41.8	–	–	–	–	–	–	–
Cc1cc2nc(CCC(=O)O)c(=O)[nH]c2cc1C	–	> 100	–	> 100	–	> 100	–	> 100	–	> 100	–	> 100	> 100	–	–	–	–	–	–	–
O=NNc1ccc(S(=O)(=O)c2ccccc2)cn1	–	> 100	–	> 100	–	> 100	–	–	–	> 100	–	> 100	> 100	–	> 100	–	–	> 100	–	> 100
